This note sets out measurements from ChEMBL document CHEMBL3792304 (Eur J Med Chem, 2016).

Data set [1] relates to Hepatitis C virus. Kind of data set: Antiviral activity against Hepatitis C virus genotype 1b infected in human Huh7ET cells expressing LucUbiNeo fusion protein measured after 2 days by luciferase Bright-Glo assay. The format is functional, organism-based, Hepacivirus hominis. The conditions noted are these: Huh-7, 48 h.
Data set [2] can be described thus: Cytotoxicity against human Huh7ET cells expressing LucUbiNeo fusion protein measured after 4 hrs at 37 degC by MTT assay. Type of data set: cell-based, Huh-7. (Tetrazolium assays rely on reduction of a dye to a coloured formazan, in cell work by metabolically active cells.)
The nature of data set [3]: Selectivity index, ratio of CC50 for human Huh7ET cells expressing LucUbiNeo fusion protein to EC50 for Hepatitis C virus genotype 1b infected in human […] cells. Conditions: read-out: Ratio CC50/EC50. The format is toxicity, cell-based.
The test system of data set [4] is Hepatitis C virus. The experiment in a line: Antiviral activity against HCV subtype 1b by replicon assay. The conditions noted are these: genotype 1b. The format is functional, organism-based, Hepacivirus hominis. In general terms: In antiviral work, replicon cells carry a viral genome segment that copies itself.

Regarding `Nc1nc(Nc2ccccc2)nc2c1cc(-c1c(Cl)cccc1Cl)c(=O)n2CCO`, the EC50 (usually the concentration at which the effect is half-maximal) in the data set on Hepatitis C virus [1] was determined as 2.3 µM. The half-maximal cytotoxic concentration (CC50) (usually the concentration giving 50% cytotoxicity) at 4 h in data set [2] was 29.3 µM. For `CCCOCCNc1nc(Nc2ccccc2)nc2c1cc(-c1c(Cl)cccc1Cl)c(=O)n2C`, in that order: 5.1 µM and 84.7 µM. The matching figures for `CSc1nc2c(c(=O)[nH]1)CC(Cc1ccccc1)C(=O)N2` (configuration not stated): 11.2 µM and 38.3 µM. As for `Nc1nc(Nc2ccccc2)nc2[nH]c(=O)c(-c3c(Br)cccc3Br)cc12`, it took 7.7 µM to reach a half-maximal effect in the data set with Hepatitis C virus [1] (EC50). The CC50 at 4 h in data set [2] was found to be 166 µM. In turn, `COc1ccc(Nc2nc3[nH]c(=O)c(-c4ccc(F)cc4)cc3c(=O)[nH]2)cc1` yielded an EC50 with Hepatitis C virus [1] of 9.4 µM. The CC50 at 4 h in data set [2] was found to be 46 µM. In turn, `Cn1c(=O)c(-c2c(Cl)cccc2Cl)cc2cnc(Nc3ccccc3)nc21` returned an EC50 in the data set with Hepatitis C virus [1] of 0.23 µM. The compound further registered a CC50 at 4 h in data set [2] of 0.9 µM.

Regarding `O=C1Nc2nc(Nc3ccccc3)[nH]c(=O)c2CC1c1c(F)cccc1F` (configuration not stated), the selectivity ratio in data set [3] was found to be 196. In the data set with Hepatitis C virus [1], this compound returned an EC50 of 0.027 µM. Besides, in data set [2], half-maximal cytotoxicity (CC50 at 4 h) was put at 5.3 µM. In turn, `O=C1Nc2nc(NCc3ccccc3)[nH]c(=O)c2CC1c1c(Cl)cccc1Cl` (configuration not stated) gave an EC50 with Hepatitis C virus [1] of 9.6 µM. In data set [2], this compound yielded a CC50 at 4 h of 69 µM.

With `Cn1c(=O)c(-c2c(F)cccc2C(F)(F)F)cc2c(N)nc(Nc3ccccc3)nc21`, in the data set on Hepatitis C virus [1], the EC50 came to 2.8 µM. In data set [2], this compound registered a CC50 at 4 h of 6.3 µM.

In the data set on Hepatitis C virus [1], `COCCOc1nc(N)nc2c1CC(c1c(Cl)cccc1Cl)C(=O)N2` (configuration not stated) had an EC50 of 22 µM. Half-maximal cytotoxicity in data set [2] (CC50 at 4 h) was put at 65 µM. In the case of `O=C1Nc2nc(Nc3ccccc3)nc(On3nnc4ccccc43)c2CC1c1ccc(Cl)cc1Cl` (configuration not stated), a half-maximal response with Hepatitis C virus [1] (EC50) required 1.35 µM. This compound also registered a CC50 at 4 h in data set [2] of 5.5 µM. In the data set on Hepatitis C virus [1], `CCCOCCNc1nc(Nc2ccccc2)nc2c1CC(c1c(Cl)cccc1Cl)C(=O)N2` (configuration not stated) showed an EC50 of 12.4 µM. This compound also had a CC50 at 4 h in data set [2] of 50.5 µM.

In the case of `Cn1c(=O)c(-c2c(Cl)cccc2Cl)cc2c(N)nc(N)nc21`, the EC50 with Hepatitis C virus [1] turned out to be 16.7 µM. Moreover, the CC50 at 4 h in data set [2] stood at 120 µM. The matching figures for `CC(C)Cn1c(=O)c(-c2c(Cl)cccc2Cl)cc2c(N)nc(Nc3ccccc3)nc21`: 0.22 µM and 185 µM. Turning to `Cn1c(=O)c(-c2c(Br)cccc2Br)cc2c(N)nc(Nc3ccccc3)nc21`, in the data set with Hepatitis C virus [1], a half-maximal effect (EC50) was put at 0.3 µM. This compound also showed a CC50 at 4 h in data set [2] of 0.8 µM. For `Cn1c(=O)c(-c2ccc(F)cc2)cc2c(N3CCCC3)nc(N)nc21`, in that order: 10.5 µM and 111 µM. For `CCCOCCNc1nc(Oc2ccccc2)nc2[nH]c(=O)c(-c3ccc(F)cc3)cc12`, in that order: 3.3 µM and 79.8 µM. Regarding `CCCCCNc1nc(N)nc2c1cc(-c1ccc(F)cc1)c(=O)n2C`, in the data set on Hepatitis C virus [1], the EC50 was 20.9 µM. Also, the CC50 at 4 h in data set [2] was found to be 79.8 µM. Take `O=c1[nH]c2nc(Nc3ccccc3)[nH]c(=O)c2cc1-c1ccc(F)cc1`: the selectivity ratio in data set [3] stood at 397. The compound further had an EC50 in the data set on Hepatitis C virus [1] of 0.034 µM. This compound came in with a CC50 at 4 h in data set [2] of 13.5 µM.

`Cn1c(=O)c(-c2ccccc2)cc2c(N)nc(Nc3ccccc3)nc21` came in with an EC50 in the data set on Hepatitis C virus [1] of 0.9 µM. This compound showed a CC50 at 4 h in data set [2] of 23.5 µM. For `O=C1Nc2nc(Nc3ccccc3)nc(On3nnc4ccccc43)c2CC1c1ccc(F)cc1` (configuration not stated), in that order: 1.28 µM and 12.2 µM. Consider `CCCCn1c(=O)c(-c2c(Cl)cccc2Cl)cc2c(N)nc(Nc3ccccc3)nc21`, for which a half-maximal response in the data set on Hepatitis C virus [1] (EC50) required 11.9 µM. With `CCCOCCNc1nc(N)nc2[nH]c(=O)c(-c3ccc(F)cc3)cc12`, a half-maximal response in the data set with Hepatitis C virus [1] (EC50) required 2.1 µM. Moreover, in data set [2], half-maximal cytotoxicity (CC50 at 4 h) was put at 130 µM. Turning to `Cn1c(=O)c(-c2c(F)cccc2F)cc2c(N)nc(Nc3ccccc3)nc21`, the EC50 with Hepatitis C virus [1] turned out to be 0.16 µM. The compound further gave a 50% cytotoxic concentration (CC50) at 4 h in data set [2] of 10.4 µM. In the data set on Hepatitis C virus [4], `CC(C)OC(=O)[C@H](C)NP(=O)(OC[C@H]1O[C@@H](n2ccc(=O)[nH]c2=O)[C@](C)(F)[C@@H]1O)Oc1ccccc1` (some centres not stated) gave an EC50 of 0.048 µM.

In the data set with Hepatitis C virus [1], `CCCOCCNc1nc(N)nc2c1cc(-c1ccc(F)cc1)c(=O)n2C` yielded an EC50 of 4.7 µM. The compound also returned a 50% cytotoxic concentration (CC50) at 4 h in data set [2] of 54.3 µM. `Nc1nc(Nc2ccccc2)nc2[nH]c(=O)c(-c3ccccc3)cc12`: in the data set with Hepatitis C virus [1], the EC50 was found to be 0.49 µM. In addition, the CC50 at 4 h in data set [2] was 13.8 µM. In turn, `CCn1c(=O)c(-c2c(Cl)cccc2Cl)cc2c(N)nc(Nc3ccccc3)nc21` gave an EC50 in the data set with Hepatitis C virus [1] of 6.3 µM. Regarding `Nc1nc(Nc2ccccc2)nc2[nH]c(=O)c(-c3c(F)cccc3F)cc12`, the EC50 in the data set on Hepatitis C virus [1] was found to be 17.5 µM. Also, the CC50 at 4 h in data set [2] was 2.4 µM. For `O=C1Nc2nc(Oc3ccccc3)nc(On3nnc4ccccc43)c2CC1c1ccc(F)cc1` (configuration not stated), in that order: 18.6 µM and 62.7 µM.

`CCCn1c(=O)c(-c2c(Cl)cccc2Cl)cc2c(N)nc(Nc3ccccc3)nc21` showed an EC50 in the data set with Hepatitis C virus [1] of 1.4 µM. Besides, the CC50 at 4 h in data set [2] is 181 µM. For `CCCOCCOc1nc(N)nc2c1cc(-c1c(Cl)cccc1Cl)c(=O)n2C`, in that order: 10.4 µM and 50.1 µM. The matching figures for `COCCn1c(=O)c(-c2c(Cl)cccc2Cl)cc2c(N)nc(Nc3ccccc3)nc21`: 0.99 µM and 241 µM. The matching figures for `CCCCCNc1nc(N)nc2[nH]c(=O)c(-c3c(Cl)cccc3Cl)cc12`: 3.2 µM and 11 µM.
